In ChEMBL document CHEMBL3272027, “Chemoimmunotherapy of cancer” (1977):

How the values were obtained:
Format in all cases: functional
P388 [1] = assay: In vivo antitumor activity against mouse P388 cells in 3PS31 test system at 12.5 mg/kg administered on day 1, 5 and 9 relative to control
P388 [2] = assay: In vivo antitumor activity against mouse P388 cells in 3PS31 test system at 25 mg/kg administered on day 1, 5 and 9 relative to control
P388 [3] = assay: In vivo antitumor activity against mouse P388 cells in 3PS31 test system at 6.25 mg/kg administered on day 1, 5 and 9 relative to control
P388 [4] = assay: In vivo antitumor activity against mouse P388 cells in 3PS31 test system at 50 mg/kg administered on day 1, 5 and 9 relative to control
P388 [5] = assay: In vivo antitumor activity against mouse P388 cells in 3PS31 test system at 75 mg/kg administered on day 1, 5 and 9 relative to control

`O=[N+]([O-])c1cc([N+](=O)[O-])c(NCCCSCCCl)c(S(=O)(=O)O)c1` showed a T/C (P388 [1]) of 132%, a T/C (P388 [2]) of 136% and a T/C (P388 [3]) of 111%. The T/C (P388 [4]) was 128%.
Work on `O=[N+]([O-])c1cc([N+](=O)[O-])c(NCCSCCCl)c(S(=O)(=O)O)c1` yielded a T/C (P388 [1]) of 111%, a T/C (P388 [2]) of 124% and a T/C (P388 [5]) of 118%. The T/C (P388 [4]) was 124%.
In the case of `O=C(O)c1cc([N+](=O)[O-])cc([N+](=O)[O-])c1NCCSCCCl`, the T/C (P388 [1]) is reported as 102%, the T/C (P388 [2]) is reported as 111% and the T/C (P388 [4]) is reported as 106%.
